Measured values from patent US6841236B2, “Articles containing thioxanthone dyes” (3M Innovative Properties Co., priority 2001, dated 2005).

What was measured:
Assay type in all cases: physicochemical
[1] = Daytime color of polyurethane film with dye laminated to retroreflective sheeting; details: dye 0.2 wt.-% in aliphatic polyester polyurethane PN03.214, 0.1 mm film on Scotchlite 3970
Protocol: (§1) The daytime color of each article was measured using a Labsphere BFC-450 Bispectral Colorimeter commercially available from Labsphere, North Sutton, N.H. The daytime chromaticity (x,y), total luminance factor (YT), and fluorescence luminance factor (YF; which is a measure of the fluorescent properties of the article) calculated for the CIE D65 and the CIE 1931 observer are provided in TABLE II
Examples 24-27 were prepared as described in Examples 8-10, except that the dyes of Examples 1, 3, 6-(2-hydroxy-ethoxy)-14H-anthra(2,1,9-mna)thioxanthene-14-one (described by Carlini et al.) and 6-methoxy-14H-anthra(2,1,9-mna)thioxanthene-14-one were independently used at 0.2 wt.-% loading in an aliphatic polyester polyurethane resin commercially available from Huntsman Polyurethanes, West Deptford, N.J., USA under the trade designation “PN03.214”. The extrusion conditions for the polyurethane were 154-191° C. and the resultant film thickness was 0.1 mm.
The resultant films were laminated to Scotchlite 3970 reflective sheeting on aluminum panels as described in Examples 8-10. Color values were measured as described in Examples 8-10 and the results set out in TABLE VII.

[2] = Daytime color of copolyester film with dye laminated to retroreflective sheeting; details: dye 0.2 wt.-% in copolyester resin, 0.1 mm film on Scotchlite 3970
Protocol: as §1
Examples 17-18 were prepared as described in Examples 8-10, except that the dyes of Examples 1 and 2 at a 0.2 wt.-% loading were independently incorporated into a copolyester resin. The copolyester resin was prepared using terephthalic and isophthalic acid in an 80/20 ratio and ethylene glycol in the conventional manner and analogous to the production of polyethylene terephthalate according to the method described in Macromolecular Syntheses, A Periodic Publication of Methods for the Preparation of Macromolecules, Collective Volume I, 1977, J. A. Moore, Editor, (John Wiley & Sons, New York; 1978);p. 17-21. The extrusion conditions for the copolyester were 254-260° C. using a single screw extruder and the resultant film thickness was 0.1 mm.
The resultant films were laminated to Scotchlite 3970 reflective sheeting on aluminum panels as described in Examples 8-10. Color values were measured as described in Examples 8-10 and the results set out in TABLE IV.

[3] = Dye concentration in saturated acetone solution at room temperature; details: 72 hours at RT, 0.45 micron PTFE filtered, absorbance at 535 nm
Protocol: Examples 4-7 were prepared by placing 60-100 mg of each of the compounds of Examples 1-3 and 6-methoxy-14H-anthra(2,1,9-mna)thioxanthene-14-one (described by Carlini et al.) in a vial with 5.0 ml acetone. […] Each vial was hand shaken and the solution was filtered using a 0.45 micron polytetrafluoroethylene (PTFE) filter commercially available from VWR Scientific Products, West Chester, Pa. under the trade designation “Acrodisc 13CR PTFE”.
The amount of fluorescent dye in the saturated acetone solution was determined by measuring the major dye absorption band at 535 nm using a UV-Vis Spectrophotometer commercially available from Shimadzu Scientific Instruments, Inc., Columbia, Md. under the trade designation “Shimadzu model UV-2401PC”. Dye concentrations were calculated by measuring the absorbance of the saturated acetone solution, and then diluting that solution until absorbance of the resulting solution was below 3. The dyes were assumed to have equal absorbance per mole. Using the dilution and an absorbance coefficient of 16,100 A/mol/L (coefficient obtained in acetone for the dye of Example 3) and assuming a Beer's Law relationship, the concentration of dye in each saturated solution was calculated and is set out in TABLE I

[4] = Daytime color of Paraloid B66 dye coating on retroreflective sheeting
Protocol: as §1
Examples 19-21 were prepared by independently stirring 0.10 parts of the dyes of Examples 1 and 3 and 6-methoxy-14H-anthra(2,1,9-mna)thioxanthene-14-one in a clear vehicle solution of 64.8 parts Dowanol DPMA and 38.2 parts Paraloid B66.
The fluorescent dye solutions were coated on Scotchlite 3970 reflective sheeting using a #16 wire wound bar. The coating was air dried for 5 minutes and then dried in a 120° C. oven for 45 minutes. Color values were measured as described in Examples 8-10 and the results set out in TABLE V.

[5] = Daytime color and visual inspection of PMMA film with dye laminated to retroreflective sheeting
Protocol: as §1
Examples 11-16 were prepared with the compounds of Examples 1-2 and 6-methoxy-14H-anthra(2,1,9-mna)thioxanthene-14-one in polymethylmethacrylate (PMMA) resin at the wt.-% of dye shown in TABLE III. The samples were prepared by dry blending the dye with a medium impact modified grade PMMA resin commercially available from Ineos Acrylics Inc., Cordova, Tenn. under the trade designation “CP923”. Films of 0.1 mm thickness were extruded through a single screw extruder with three heating zones set at 249° C. to 260° C. […] Examples 11 and 12 and Examples 13 and 14 had equal molar loadings of dye.
The resultant films were laminated to Scotchlite 3970 reflective sheeting on aluminum panels as described in Examples 8-10. Color values were measured as described in Examples 8-10 and the results set out in TABLE III.

[6] = 0.10 parts dye in 64.8 parts Dowanol DPMA and 38.2 parts Paraloid B66, coated on Scotchlite 3970 with #16 wire wound bar, dried
[7] = dye 0.2 wt-% in PMMA CP923, 0.1 mm film on Scotchlite 3970
[8] = dye 0.38 wt-% in PMMA CP923, 0.1 mm film on Scotchlite 3970
[9] = dye 1.27 wt-% in PMMA CP923, 0.1 mm film on Scotchlite 3970

For `CCCCCCCCOc1cc2c3ccccc3c(=O)c3ccc4c5ccccc5sc1c4c32` [Example 1, 6-n-Octyloxy-14H-anthra(2,1,9mna)thioxanthene-14-one], the “X (daytime chromaticity)” value [1] was 0.5739, the “YF (fluorescence luminance factor)” value [1] was 11.83 and the “YT (total luminance factor)” value [1] was 17.46. The “y (daytime chromaticity)” value [1] was 0.2692, the “YF (fluorescence luminance factor)” value [2] was 11.70 and the “YT (total luminance factor)” value [2] was 22.83. The “x (daytime chromaticity)” value [2] was 0.5429, the “y (daytime chromaticity)” value [2] was 0.3056 and the “Dye Concentration in Acetone at RT” value [3] was 0.19 mg/mL. For the same compound, the “YF (fluorescence luminance factor)” value [4, 6] was 11.09, the “YT (total luminance factor)” value [4, 6] was 30.10 and the “x (daytime chromaticity)” value [4, 6] was 0.4381. For the same compound, the “y (daytime chromaticity)” value [4, 6] was 0.2980, the “appearance of coated article” value ([4]; dye in Paraloid B66 coating on Scotchlite 3970) was “bright fluorescent pink appearance” and the “fluorescence relative to articles with the 6-methoxy dye” value ([5]; PMMA films, equal molar loadings of dye, by fluorescence luminance factor) was “higher fluorescence”. For the same compound, the “X (daytime chromaticity)” value [5, 7] was 0.5210, the “YF (fluorescence luminance factor)” value [5, 7] was 16.83 and the “YT (total luminance factor)” value [5, 7] was 30.85. The “y (daytime chromaticity)” value [5, 7] was 0.3252, the “X (daytime chromaticity)” value [5, 8] was 0.5923 and the “YF (fluorescence luminance factor)” value [5, 8] was 13.74. For the same compound, the “YT (total luminance factor)” value [5, 8] was 19.96, the “y (daytime chromaticity)” value [5, 8] was 0.3022 and the “X (daytime chromaticity)” value [5, 9] was 0.6305. The “YF (fluorescence luminance factor)” value [5, 9] was 4.97, the “YT (total luminance factor)” value [5, 9] was 7.80 and the “y (daytime chromaticity)” value [5, 9] was 0.3008. The “visual inspection of film for undissolved dye” value ([5]; extruded PMMA CP923 film 0.1 mm, 6-methoxy dye at 1 wt.-%, dyes of Examples 1-2 at up to 1.27 wt-%) was “uniform appearance with no undissolved dye seen”.
